The assay deals with T1, Carboxypeptidase B (Sus scrofa, UniProt P09955).
T1 sequence (P09955 whole entry): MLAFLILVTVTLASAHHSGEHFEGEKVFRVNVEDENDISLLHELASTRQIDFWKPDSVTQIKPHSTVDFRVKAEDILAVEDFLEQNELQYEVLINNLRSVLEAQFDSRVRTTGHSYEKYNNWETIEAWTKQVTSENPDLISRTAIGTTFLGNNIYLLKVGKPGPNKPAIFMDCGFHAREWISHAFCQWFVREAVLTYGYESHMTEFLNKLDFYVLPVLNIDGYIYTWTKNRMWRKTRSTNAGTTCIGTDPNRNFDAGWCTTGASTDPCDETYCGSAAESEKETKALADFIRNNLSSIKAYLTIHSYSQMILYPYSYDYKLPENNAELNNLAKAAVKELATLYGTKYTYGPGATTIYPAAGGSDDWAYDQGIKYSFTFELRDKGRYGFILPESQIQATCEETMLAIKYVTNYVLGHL
The assay is described as follows: Inhibition of carboxypeptidase B in porcine pancreas using hippuryl-L-Arg as substrate preincubated with substrate for 2 mins followed by enzyme addition and measured after 5 mins by colorimetric method. Type of assay: tissue-based.

By IC50 is commonly meant the midpoint of a concentration-inhibition curve. A low value points to greater potency in that assay. `CC[C@H](C)[C@@H]1NC(=O)[C@H](CC(C)C)N(C)C(=O)[C@H](C)NC(=O)[C@H](NC(=O)N[C@@H](CCCNC(=N)N)C(=O)O)CCCCNC1=O`: half-maximal inhibition (IC50) required 590 nM.

The record behind these values is ChEMBL document CHEMBL4840301, “Homophymamide A, Heterodetic Cyclic Tetrapeptide from a Homophymia sp. Marine Sponge: A Cautionary Note on Configurational Assignment of Peptides That Contain a Ureido Linkage” (J Nat Prod, 2021).
